Like-named read-outs stand apart in the source and are kept apart here.
Columns and labels:
[1] = test system: HBV; assay: Determination of HBV DNA from the supernatants of HepAD38 cells (anti-HBV activity); type: cell-based, hepatitis B virus; details: Hepatitis B virus, HePAD38, 144 h, HBV DNA in HepAD38 supernatant, day 6, qPCR, read-out: Cell Activity
Procedure, shortened: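 EC50 derived by non-linear regression of relative HBV DNA copy numbers, measured by qPCR (plasmid standards) in day-6 filtered supernatants. Before this, HepAD38 cells were exposed to serial half-log compound dilutions without tetracycline, releasing viral expression; cultures kept at 37 °C, 5% CO2.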

[2] = target: HBV core protein (C-terminal truncated core protein containing 149 amino acids of the N-terminal assembly domain) (UniProt P03146); assay: Biochemical capsid assembly assay (fluorescence quenching); set-up: rows headed: Assembly Activity; other: BODIPY-FL labelled core protein, assembly started with NaCl, read after 6 min; details: read-out: Assembly Activity; BODIPY-FL labelled core protein, assembly started with NaCl, read after 6 min
Procedure, shortened: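 N-terminal assembly domain (residues 1–149) plus C-terminal Cys150, E. coli-expressed, BODIPY-FL-maleimide labelled, used at 1.0–2.0 μM in 50 mM HEPES pH 7.5 with 0.5% DMSO. Assembly started with NaCl ([…]); fluorescence quenching (ex 477/em 525 nm) read after 6 min. 8-point compound series; EC50 by non-linear regression.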

[3] = Cell viability assay (AlamarBlue); details: human, HepAD38 cells

Sequence of HBV core protein (C-terminal truncated core protein containing 149 amino acids of the N-terminal assembly domain) (P03146 whole entry, the tested form may be a part): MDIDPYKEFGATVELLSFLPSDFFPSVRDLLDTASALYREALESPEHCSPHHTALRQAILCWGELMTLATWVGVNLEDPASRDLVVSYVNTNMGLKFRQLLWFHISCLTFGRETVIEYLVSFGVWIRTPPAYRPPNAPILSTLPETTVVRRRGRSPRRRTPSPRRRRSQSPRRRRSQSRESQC

Compound	EC50 [1] [µM]	IC50 [2] [µM]	CC50 at 6 days [3] [µM]	EC50 ([1]; printed as number instead of class symbol) [µM]
O=C(c1cc2ccccc2[nH]1)N1CCn2ncc(C(=O)N3CC4C(C3)C4(F)F)c2C1 (stereo not drawn) [Example 42, 2-(3-{6,6-difluoro-3-azabicyclo[3.1.0]hexane-3-carbonyl}-4H,5H,6H,7H-pyrazolo[1,5-a]pyrazine-5-carbonyl)-1H-indole]	< 1	< 5	> 10	
O=C(c1cc2ccccc2[nH]1)N1CCn2ncc(C(=O)N3CC4CC4C3)c2C1 (stereo not drawn) [Example 43, 2-(3-{3-azabicyclo[3.1.0]hexane-3-carbonyl}-4H,5H,6H,7H-pyrazolo[1,5-a]pyrazine-5-carbonyl)-1H-indole]	< 100	< 5	> 10	
CN(Cc1ccccn1)C(=O)c1cnn2c1CN(C(=O)c1cc3ccccc3[nH]1)CC2 [Example 44, 5-(1H-indole-2-carbonyl)-N-methyl-N-[(pyridin-2-yl)methyl]-4H,5H,6H,7H-pyrazolo[1,5-a]pyrazine-3-carboxamide]	< 1	< 5	> 10	
O=C(c1cc2ccccc2[nH]1)N1CCn2ncc(C3(O)CCC3)c2C1 [Example 45, 1-[5-(1H-indole-2-carbonyl)-4H,5H,6H,7H-pyrazolo[1,5-a]pyrazin-3-yl]cyclobutan-1-ol]	1 to 10	5 to 10	> 10	
CN(C(=O)c1cnn2c1CN(C(=O)c1cc3ccccc3[nH]1)CC2)C1(c2ccncc2)CC1 [Example 46, 5-(1H-indole-2-carbonyl)-N-methyl-N-[1-(pyridin-4-yl)cyclopropyl]-4H,5H,6H,7H-pyrazolo[1,5-a]pyrazine-3-carboxamide]	< 1	< 5	> 10	
CN(C(=O)c1cnn2c1CN(C(=O)c1cc3ccccc3[nH]1)CC2)C1(c2ncccn2)CC1 [Example 47, 5-(1H-indole-2-carbonyl)-N-methyl-N-[1-(pyrimidin-2-yl)cyclopropyl]-4H,5H,6H,7H-pyrazolo[1,5-a]pyrazine-3-carboxamide]	< 1	< 5	> 10	
O=C(c1cc2ccccc2[nH]1)N1CCn2ncc(C(=O)N3CCC4CC43)c2C1 (stereo not drawn) [Example 48, 2-(3-{2-azabicyclo[3.1.0]hexane-2-carbonyl}-4H,5H,6H,7H-pyrazolo[1,5-a]pyrazine-5-carbonyl)-1H-indole]	1 to 10	< 5	> 10	
O=C(c1cc2ccccc2[nH]1)N1CCn2ncc(N3CC4(CC4)CC3=O)c2C1 [Example 49, 5-[5-(1H-indole-2-carbonyl)-4H,5H,6H,7H-pyrazolo[1,5-a]pyrazin-3-yl]-5-azaspiro[2.4]heptan-6-one]	< 1	< 5	> 10	
COCC1(NC(=O)c2cnn3c2CN(C(=O)c2cc4ccccc4[nH]2)CC3)CC1 [Example 50, 5-(1H-indole-2-carbonyl)-N-[1-(methoxymethyl)cyclopropyl]-4H,5H,6H,7H-pyrazolo[1,5-a]pyrazine-3-carboxamide]	< 1	< 5	> 10	
O=C(c1cc2ccccc2[nH]1)N1CCn2ncc(C3(O)CC(c4ccccc4)C3)c2C1 (stereo not drawn) [Example 51, 1-[5-(1H-indole-2-carbonyl)-4H,5H,6H,7H-pyrazolo[1,5-a]pyrazin-3-yl]-3-phenylcyclobutan-1-ol]	1 to 10	5 to 10	> 10	
CN(CCO)C(=O)c1cnn2c1CN(C(=O)c1cc3c(Cl)cccc3[nH]1)CC2 [Example 52, 5-(4-chloro-1H-indole-2-carbonyl)-N-(2-hydroxyethyl)-N-methyl-4H,5H,6H,7H-pyrazolo[1,5-a]pyrazine-3-carboxamide]	< 1	< 5	> 10	
CN(C(=O)c1cnn2c1CN(C(=O)c1cc3ccccc3[nH]1)CC2)C1(CNCC(F)F)CC1 [Example 53, N-(1-{[(2,2-difluoroethyl)amino]methyl}cyclopropyl)-5-(1H-indole-2-carbonyl)-N-methyl-4H,5H,6H,7H-pyrazolo[1,5-a]pyrazine-3-carboxamide]	< 1	< 5	> 10	
O=C(NCCOC(F)F)c1cnn2c1CN(C(=O)c1cc3ccccc3[nH]1)CC2 [Example 54, N-[2-(difluoromethoxy)ethyl]-5-(1H-indole-2-carbonyl)-4H,5H,6H,7H-pyrazolo[1,5-a]pyrazine-3-carboxamide]	1 to 10	< 5	> 10	
CN(Cc1ccnn1C)C(=O)c1cnn2c1CN(C(=O)c1cc3ccccc3[nH]1)CC2 [Example 55, 5-(1H-indole-2-carbonyl)-N-methyl-N-[(1-methyl-1H-pyrazol-5-yl)methyl]-4H,5H,6H,7H-pyrazolo[1,5-a]pyrazine-3-carboxamide]	< 1	< 5	> 10	
O=C(c1cc2ccccc2[nH]1)N1CCn2ncc(C(=O)N3CCC(F)(F)C34CC4)c2C1 [Example 56, 2-(3-{7,7-difluoro-4-azaspiro[2.4]heptane-4-carbonyl}-4H,5H,6H,7H-pyrazolo[1,5-a]pyrazine-5-carbonyl)-1H-indole]	< 1	< 5	> 10	
CN(C(=O)c1cnn2c1CN(C(=O)c1cc3ccccc3[nH]1)CC2)C1(c2cocn2)CC1 [Example 57, 5-(1H-indole-2-carbonyl)-N-methyl-N-[1-(1,3-oxazol-4-yl)cyclopropyl]-4H,5H,6H,7H-pyrazolo[1,5-a]pyrazine-3-carboxamide]	< 1	< 5	> 10	
O=C(c1cc2ccccc2[nH]1)N1CCn2ncc(C(=O)N3CCC(O)CC34CC4)c2C1 (stereo not drawn) [Example 58, 4-[5-(1H-indole-2-carbonyl)-4H,5H,6H,7H-pyrazolo[1,5-a]pyrazine-3-carbonyl]-4-azaspiro[2.5]octan-7-ol]	< 1	< 5	> 10	
O=C(c1cc2ccccc2[nH]1)N1CCn2ncc(C(=O)N3CCC(OC(F)F)CC34CC4)c2C1 (stereo not drawn) [Example 59, 2-{3-[7-(difluoromethoxy)-4-azaspiro[2.5]octane-4-carbonyl]-4H,5H,6H,7H-pyrazolo[1,5-a]pyrazine-5-carbonyl}-1H-indole]	< 1	< 5	> 10	
O=C(c1cc2ccccc2[nH]1)N1CCn2ncc(C(=O)N(C3CC3)C3CC3)c2C1 [Example 60, N,N-dicyclopropyl-5-(1H-indole-2-carbonyl)-4H,5H,6H,7H-pyrazolo[1,5-a]pyrazine-3-carboxamide]	< 1	< 5	> 10	
O=C(NC1(c2ccccn2)CC1)c1cnn2c1CN(C(=O)c1cc3ccccc3[nH]1)CC2 [Example 61, 5-(1H-indole-2-carbonyl)-N-[1-(pyridin-2-yl)cyclopropyl]-4H,5H,6H,7H-pyrazolo[1,5-a]pyrazine-3-carboxamide]	< 1	< 5	> 10	
CN(CCOC(F)F)C(=O)c1cnn2c1CN(C(=O)c1cc3ccccc3[nH]1)CC2 [Example 62, N-[2-(difluoromethoxy)ethyl]-5-(1H-indole-2-carbonyl)-N-methyl-4H,5H,6H,7H-pyrazolo[1,5-a]pyrazine-3-carboxamide]		< 5	> 10	> 10
CN(Cc1ccccc1)C(=O)c1cnn2c1CN(C(=O)c1cc3ccccc3[nH]1)CC2 [Example 63, N-benzyl-5-(1H-indole-2-carbonyl)-N-methyl-4H,5H,6H,7H-pyrazolo[1,5-a]pyrazine-3-carboxamide]	< 1	< 5	> 10	
CN(C(=O)c1cnn2c1CN(C(=O)c1cc3ccccc3[nH]1)CC2)C1(COCCO)CC1 [Example 64, N-{1-[(2-hydroxyethoxy)methyl]cyclopropyl}-5-(1H-indole-2-carbonyl)-N-methyl-4H,5H,6H,7H-pyrazolo[1,5-a]pyrazine-3-carboxamide]	< 1	< 5	> 10	
CN(C(=O)c1cnn2c1CN(C(=O)c1cc3ccccc3[nH]1)CC2)C1(COCCCO)CC1 [Example 65, N-{1-[(3-hydroxypropoxy)methyl]cyclopropyl}-5-(1H-indole-2-carbonyl)-N-methyl-4H,5H,6H,7H-pyrazolo[1,5-a]pyrazine-3-carboxamide]	< 1	< 5	> 10	
O=C(c1cc2ccccc2[nH]1)N1CCn2ncc(-c3cscn3)c2C1 [Example 66, 2-[3-(1,3-thiazol-4-yl)-4H,5H,6H,7H-pyrazolo[1,5-a]pyrazine-5-carbonyl]-1H-indole]	< 1	< 5	> 10	
O=C(c1cc2ccccc2[nH]1)N1CCn2ncc(C(=O)N3CCCOCC34CC4)c2C1 [Example 67, 4-[5-(1H-indole-2-carbonyl)-4H,5H,6H,7H-pyrazolo[1,5-a]pyrazine-3-carbonyl]-8-oxa-4-azaspiro[2.6]nonane]	< 1	< 5	> 10	

Source: US20220363686A1 (AiCuris GmbH & Co. KG, priority 2018, published 2022)
